This assay addresses T1, N-terminally GST-tagged human full length recombinant Mps-1 kinase (Homo sapiens, UniProt P33981).
T1 construct: N-terminally GST-tagged human full length recombinant Mps-1 kinase; purchased Invitrogen, Karslruhe, Germany PV4071
T1 sequence (P33981 1-857): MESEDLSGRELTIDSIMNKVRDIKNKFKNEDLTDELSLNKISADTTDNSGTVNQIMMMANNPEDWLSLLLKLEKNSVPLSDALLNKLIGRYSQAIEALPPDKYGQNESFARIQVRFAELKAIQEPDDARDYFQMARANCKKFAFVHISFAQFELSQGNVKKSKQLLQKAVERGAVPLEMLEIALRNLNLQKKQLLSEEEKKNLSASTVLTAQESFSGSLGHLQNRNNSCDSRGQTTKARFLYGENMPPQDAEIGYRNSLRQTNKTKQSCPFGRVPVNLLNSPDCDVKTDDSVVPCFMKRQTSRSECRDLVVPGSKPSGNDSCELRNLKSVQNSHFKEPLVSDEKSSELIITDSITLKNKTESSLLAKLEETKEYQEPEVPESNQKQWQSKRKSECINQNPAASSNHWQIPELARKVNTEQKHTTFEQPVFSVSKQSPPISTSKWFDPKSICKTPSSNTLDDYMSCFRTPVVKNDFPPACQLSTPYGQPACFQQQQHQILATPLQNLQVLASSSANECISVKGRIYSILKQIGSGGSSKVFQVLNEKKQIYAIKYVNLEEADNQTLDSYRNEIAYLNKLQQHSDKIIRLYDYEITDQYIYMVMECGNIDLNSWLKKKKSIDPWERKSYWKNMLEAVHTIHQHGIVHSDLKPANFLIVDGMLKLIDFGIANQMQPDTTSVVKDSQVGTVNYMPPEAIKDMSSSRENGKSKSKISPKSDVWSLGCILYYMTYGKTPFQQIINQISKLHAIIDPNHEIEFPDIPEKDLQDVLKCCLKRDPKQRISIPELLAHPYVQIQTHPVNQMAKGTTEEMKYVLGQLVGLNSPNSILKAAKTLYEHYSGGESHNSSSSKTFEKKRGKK
Put plainly: Mps-1 kinase assay (TR-FRET). Type of assay: biochemical. To be noted: Mps1 IC50 [nM], 10 μM ATP, 1 μM peptide substrate, 60 min at 22° C. In outline:
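Kinase activity of N-terminally GST-tagged full-length recombinant Mps-1, used at about 1 nM final and set within the linear range, was measured on a biotinylated peptide substrate. Phosphopeptide was detected by TR-FRET from Eu-anti-phospho(Ser/Thr) antibody to streptavidin-XLent after 1 h at 22° C.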
(TR-FRET usually uses a lanthanide donor and a delayed reading to cut background.)
For orientation: IC50 means the concentration that inhibits the measured activity by half. For `Cc1cc(-c2cnc3c(NCC4CC(=O)N(C)C4)cc(-c4ccccc4CO)nn23)ccc1C(=O)NC1CC1` (centres unmarked) [Example 344, N-cyclopropyl-4-(6-[2-(hydroxy-methyl)phenyl]-8-{[(1-methyl-5-oxo-pyrrolidin-3-yl)methyl]amino}imidazo[1,2-b]pyridazin-3-yl)-2-methyl-benzamide], the IC50 is 23 nM.

Take `Cc1cc(-c2cnc3c(NCC(C)(C)O)cc(Sc4ccccc4F)nn23)ccc1C(=O)NC1CC1` [Example 70, N-cyclopropyl-4-{6-[(2-fluorophenyl)sulfanyl]-8-[(2-hydroxy-2-methylpropyl)amino]imidazo[1,2-b]pyridazin-3-yl}-2-methylbenzamide]: the IC50 amounted to 0.3 nM.

As to `CC(C)CNc1cc(-c2ccc3nccn3c2)nn2c(-c3ccc(C(=O)NC4CC4)cc3)cnc12` [Example 145, N-cyclopropyl-4-{6-(imidazo[1,2-a]pyridin-6-yl)-8-[(2-methylpropyl)amino]imidazo[1,2-b]pyridazin-3-yl}benzamide], the IC50 was less than 1 nM.

As to `Cc1cc(-c2cnc3c(NCC(C)(C)O)cc(Sc4ncc[nH]4)nn23)ccc1C(=O)NC1CC1` [Example 318, N-cyclopropyl-4-{8-[(2-hydroxy-2-methylpropyl)amino]-6-(1H-imidazol-2-ylsulfanyl)imidazo[1,2-b]pyridazin-3-yl}-2-methylbenzamide], the IC50 amounted to 64.3 nM.

As for `Cc1cc(-c2cnc3c(NCC(C)(C)O)cc(Sc4cc(F)cc(F)c4)nn23)ccc1C(=O)NC1CC1` [Example 68, N-cyclopropyl-4-{6-[(3,5-difluorophenyl)sulfanyl]-8-[(2-hydroxy-2-methylpropyl)amino]imidazo[1,2-b]pyridazin-3-yl}-2-methylbenzamide], the IC50 was less than 0.1 nM.

For `Cc1cc(-c2cnc3c(NCCCS(C)(=O)=O)cc(Oc4cccc(F)c4)nn23)ccc1C(=O)NC1CC1` [Example 508, N-cyclopropyl-4-[6-(3-fluoro-phenoxy)-8-{[3-(methylsulfonyl)propyl]amino}imidazo[1,2-b]pyridazin-3-yl]-2-methyl-benzamide], the IC50 turned out to be 0.2 nM.

Turning to `Cc1cc(-c2cnc3c(NCC(C)(C)O)cc(Nc4ccc(CCN)cc4)nn23)ccc1C(=O)NC1CC1` [Example 435, 4-(6-{[4-(2-aminoethyl)phenyl]amino}-8-[(2-hydroxy-2-methylpropyl)amino]imidazo[1,2-b]pyridazin-3-yl)-N-cyclopropyl-2-methylbenzamide], the IC50 came to 1.6 nM.

On to `Cc1cc(-c2cnc3c(NCCC(F)(F)F)cc(Nc4ccc(Cl)cc4)nn23)ccc1C(=O)NC1CC1` [Example 374, 4-{6-[(4-chlorophenyl)amino]-8-[(3,3,3-trifluoropropyl)amino]imidazo[1,2-b]pyridazin-3-yl}-N-cyclopropyl-2-methylbenzamide], for which the IC50 is 0.3 nM.

Consider `COc1cc(Nc2cc(NCCC(F)(F)F)c3ncc(-c4ccc(C(=O)NC5CC5)c(C)c4)n3n2)ccc1F` [Example 422, N-cyclopropyl-4-{6-[(4-fluoro-3-methoxyphenyl)amino]-8-[(3,3,3-trifluoropropyl)amino]imidazo[1,2-b]pyridazin-3-yl}-2-methylbenzamide], for which the IC50 came to 0.4 nM.

Take `Cc1cc(-c2cnc3c(NCC(C)(C)O)cc(Nc4ccc(CCO)cc4)nn23)ccc1C(=O)NC1CC1` [Example 386, N-cyclopropyl-4-(6-{[4-(2-hydroxyethyl)phenyl]amino}-8-[(2-hydroxy-2-methylpropyl)amino]imidazo[1,2-b]pyridazin-3-yl)-2-methylbenzamide]: the IC50 was found to be 1.5 nM.

On to `COc1cccc(Nc2cc(NCCC(F)(F)F)c3ncc(-c4ccc(C(=O)NC5CC5)c(C)c4)n3n2)c1C` [Example 426, N-cyclopropyl-4-{6-[(3-methoxy-2-methylphenyl)amino]-8-[(3,3,3-trifluoropropyl)amino]imidazo[1,2-b]pyridazin-3-yl}-2-methylbenzamide], for which the IC50 came to 0.2 nM.

For the origin of these results see US9255100B2 (BAYER INTELLECTUAL PROPERTY GMBH, priority 2010, dated 2016).
